According to US10351759B2, “Methods of assessing oil field saturation through use of reactive partitioning tracers” (RESTRACK AS, priority 2014, dated 2019):

Legend:
Assay type in all cases: physicochemical
[1] = oil/water partition coefficient (K-value), static batch experiments, model oil
[2] = K-values of tested compounds A to G
Excerpt: Some tested compounds having other combinations of substitution and hydroxyalkyl group position include compounds A to G shown in FIG. 3.
These compounds have K-values measured as follows:
The K-values can vary with pH, as shown below for compounds B and F: […]

[3] = oil/water partition coefficient (K-value), static batch experiments, field oil phases North field 1 and North field 2; details: ionic strength in aqueous phase 0.776, pH 6.2, 50° C.
[4] = pH (aqueous phase) 6.2, ionic strength in aqueous phase 0.776, model oil (isooctane 60%/toluene 30%/1-octanol 10%), 50° C.
[5] = pH (aqueous phase) 7.0, ionic strength in aqueous phase 0.776, model oil (isooctane 60%/toluene 30%/1-octanol 10%), 50° C.
[6] = pH (aqueous phase) 8.0, ionic strength in aqueous phase 0.776, model oil (isooctane 60%/toluene 30%/1-octanol 10%), 50° C.

Row | Molecule | oil/water partition coefficient, K-value [1, 4] | oil/water partition coefficient, K-value [1, 5] | oil/water partition coefficient, K-value [1, 6] | K-value ([2]; pH (aqueous phase) 6.2) | K-value ([2]; pH (aqueous phase) 7.0) | K-value ([2]; pH (aqueous phase) 8.0) | oil/water partition coefficient, K-value ([3]; oil phase North field 1) | oil/water partition coefficient, K-value ([3]; oil phase North field 2) | oil/water partition coefficient, K-value ([1]; pH 6.2) | oil/water partition coefficient, K-value ([1]; pH 7) | oil/water partition coefficient, K-value ([1]; pH 8)
1 | 2,3-difluoro hydroxybenzoic acid [reference compound] | 0.0 | 0.0 | 0.0 | – | – | – | – | – | – | – | –
2 | COC(=O)c1c(F)ccc(CO)c1F [B, Methyl ester of 2-6-difluoro-3-hydroxymethyl benzoic acid] | – | – | – | 3.0 | 2.8 | 2.4 | – | – | – | – | –
3 | CCCCOC(=O)c1ccc(CO)cc1F [Butyl ester of 2-fluoro-4-(hydroxymethyl) benzoic acid] | 127.5 | 126.1 | 132.2 | – | – | – | 18.7 | 23.6 | – | – | –
4 | CCOC(=O)c1ccc(CO)cc1F [Ethyl ester of 2-fluoro-4-(hydroxymethyl) benzoic acid] | 10.9 | 11.2 | 11.8 | – | – | – | 1.6 | 2.5 | – | – | –
5 | CCOC(=O)c1cc(F)cc(CO)c1 [F, Ethyl ester of 3-fluoro-5-hydroxymethyl benzoic acid] | – | – | – | 6.7 | 6.3 | 6.1 | – | – | – | – | –
6 | O=C(O)c1ccc(CO)cc1F [2-fluoro-4-(hydroxymethyl) benzoic acid, 2-Fluoro-4-(hydroxymethyl)benzoic acid] | – | – | – | – | – | – | 0.0 | 0.0 | 0.0 | 0.0 | 0.0
7 | COC(=O)c1ccc(CO)cc1F [Methyl ester of 2-fluoro-4-(hydroxymethyl) benzoic acid] | 3.2 | 3.4 | 3.3 | – | – | – | 0.6 | 0.8 | – | – | –
8 | CCCOC(=O)c1ccc(CO)cc1F [Proply ester of 2-fluoro-4-(hydroxymethyl) benzoic acid] | 41.7 | 44.2 | 48.7 | – | – | – | 5.9 | 7.5 | – | – | –
